From US10407712B2, “Methods, compositions and kits for high throughput kinase activity screening using mass spectrometry and stable isotopes” (President and Fellows of Harvard College, priority 2008, dated 2019)

Experiments:
HEK293 cell lysates [1] = assay: KAYAK in vitro kinase assay, individual reactions, lysates of starved, insulin- or EGF-stimulated HEK293 cells; type: biochemical, human; details: for E: changed phosphorylation in EGF stimulated condition: EGF-stimulated compared to starved HEK293 cells; for increase in phosphorylation after EGF: EGF-stimulated vs serum-starved HEK293 lysate; for increase in phosphorylation after insulin: insulin-stimulated vs serum-starved HEK293 lysate
Procedure: (§1) For stimulation of HEK293 cells or HeLa lines, cells were treated with insulin (100 nM; 10-30 min) EGF (50 ng/ml; 10 min) or phorbol 12-myristate 13-acetate (PMA; 50 or 100 ng/ml; 10 -30 min) at 37° C. for the indicated times after overnight serum-starvation.
(§2) For cell lysis, the media were removed, and cells were washed with ice-cold phosphate-buffered saline (PBS) and lysed with ice-cold lysis buffer (10 mM K2HPO4 pH 7.5, 1 mM EDTA, 10 mM MgCl2, 50 mM β-glycerophosphate, 5 mM EGTA, 0.5% Nonidet P-40, 0.1% Brij 35, 0.1% deoxycholic acid, 1mM sodium orthovanadate, 1mM phenylmethyl-sulfonyl fluoride, 5 μg/ml leupeptin and 5 μg/ml pepstatin A). Lysates were centrifuged at 10,000 rpm for 10 min to remove cell debris, and clear supernatant was used for immunoblotting and in vitro kinase assays. Protein concentration was determined by Bradford assay (Biorad, Hercules, Calif.).
(§3) Peptides were synthesized, purified and quantified as described in Yu et al. 2009 Proc Natl Acad Sci USA 106: 11606-11611, hereby incorporated by reference herein in its entirety. Each substrate peptide (250 pmol) was mixed to a final concentration of 5 μM in the 50 μL reaction mixture. Alternatively, reactions were performed using 6 μg cell lysate aliquotes mixed to a final volume of 20 μl. Cell lysate or other kinase source was added to the substrate mixture in 25 mM Tris-Cl, pH 7.5, containing 5 mM ATP, 7.5 mM MgCl2, 0.2 mM EGTA, 7.5 mM β-glycerophosphate, 0.1 mM Na3VO4, and 0.1 mM DTT. The reaction was incubated at 25° C. for 60 min and then terminated by the addition of 100 μl of 1% trifluoroacetic acid (TFA) containing a known amount of an internal standard (typically 20 pmol). Alternatively, the reaction was incubated at 20° C. for 45 min before termination with TFA.
(§4) Forty-five individual in vitro kinase reaction mixtures were combined and desalted by using Sep-Pak C18 cartridge (Waters, Milford, Mass.). Phosphopeptides were enriched by immobilized metal ion chromatography (IMAC) with 20 μl of beads (Phos-Select iron affinity gel; Sigma, St. Louis, Mo.) and subsequently desalted by using Empore C18 solid phase extraction disks (3M, St. Paul, Minn.) as described previously.
(§5) Quantitation of the target peptide-internal standard ratios was performed by first constructing the extracted ion chromatogram for the most abundant charge state for each peptide using a ±10 ppm window. Chromatograms were integrated using Qual/Quan browser (Xcalibur 2.0.5, Thermo Fisher, San Jose, Calif.). Since the phosphorylated peptides generated from the in vitro kinase reactions were chemically identical to the internal standards, they were assumed to have the same ionization efficiency. Therefore, the amount of each phosphorylated peptide was calculated by direct ratio to the internal standard level.
(§6) To test substrate suitability in a multiplexed assay, the phosphorylation activities were measured using […] of each substrate peptide, 6 μg lysate, and 5 mM ATP in a plate format. Reactions proceeded for 60 minutes followed by acidification and the addition of isotope-labeled reference peptides. After pooling 45 samples, phosphopeptide enrichment was followed by liquid-chromatography (LC) separation and on-line peptide detection by high-resolution mass spectrometry.
The ability of the peptides to report specific changes in kinase activation after pathway stimulation was examined herein. Lysates from HEK293 cells were collected after insulin or EGF treatment and were compared to their activities in the serum-starved state using the KAYAK approach. Western blot analysis of lysates from cells in which the PI3K and MAPK pathways were activated, as indicated by elevated phospho-Akt and phospho-ERK1/2 levels, respectively, is shown in FIG. 1D. […]

HeLa cell lysates = assay: KAYAK in vitro kinase assay, lysates of asynchronous, G1/S- or G2/M-arrested HeLa cells; type: biochemical, human; details: G2/M phase compared to asynchronously growing HeLa cells
Procedure: For cell cycle examples, HeLa cells were synchronized by double thymidine block for G1/S-arrest and by 0.2 μg/ml nocodazole for G2/M-arrest as described (Dephoure et al. 2008 Proc Natl Acad Sci USA 105: 10762-10767). Synchronization was confirmed by flow cytometry.
as §2, §3, §4, §5, §6
In order to examine target peptides with cell-cycle-dependent phosphorylation, kinase activities in asynchronously growing HeLa cells were profiled and the profiles were compared with those of cells synchronized in G1/S and G2/M phase using a double-thymidine block and nocodazole arrest, respectively (FIG. 3B).

HEK293 cell lysates [2] = assay: Single-reaction 90-substrate KAYAK assay, HEK293 lysates with or without insulin; type: biochemical, human; details: for phosphorylation in response to insulin stimulation: 5 μM each peptide, HEK293 lysate
Procedure: as §1
Alternatively, cells were washed with PBS once and lysed with ice-cold lysis buffer, 10 mM potassium phosphate, pH 7.0, containing 0.5% NP-40, 0.1% Brij 35, 0.1% deoxycholic acid, 1 mM ethylenediaminetetraacetic acid (EDTA), 5 mM ethylene glycol tetraacetic acid (EGTA), 10 mM MgCl2, 50 mM β-glycerophosphate, 1 mM Na3VO4, 2 mM dithiothreitol (DTT) and protease inhibitor cocktail (Complete, Roche Applied Science, Indianapolis, Ind.). Homogenates were centrifuged at 10,000 rpm for 15 min at 4° C., and the supernatant was used as lysate. Protein concentration was quantified by a modified Bradford assay (Pierce).
as §3
Internal standard heavy peptides (5 pmol each) were added as a mixture to the terminated reactions followed by desalting with a solid phase extraction cartridge (SepPak tC18 (50 mg), Waters, Milford, Mass.). Phosphopeptides were enriched as described (Villen et al. 2008 Nat Protoc 3: 1630-1638). […]
For KAYAK analyses, phosphopeptides were dissolved in 5% FA and injected onto a 125-μm-internal diameter fused silica column packed with Magic C18 AQ material (Michrom Bioresources, Auburn, Calif.). Peptides were separated using a two-solvent system: solvent A (0.125% FA and 3% ACN in H2O), solvent B (0.125% FA in ACN) over 32 min gradient, and eluting peptides were directly analyzed using an LTQ-Orbitrap mass spectrometer (Thermo Scientific, San Jose, Calif.) equipped with the electron transfer dissociation option. […]

HEK293 cells [3] = assay: Single-reaction KAYAK of HEK293 cells treated with kinase inhibitors followed by insulin stimulation; type: cell-based, human; details: HEK293, inhibitor 30 min then 100 nM insulin 30 min
HEK293 cells [4] = assay: KAYAK of lysates from HEK293 cells pretreated with inhibitors before mitogen stimulation; type: cell-based, human
Procedure: For drug inhibition studies, cells were pretreated with U0126 (5 μM) or Wortmannin (100 nM) for 1 hr prior to hormone stimulation.
as §3
The KAYAK method was applied to measure the effect of pharmacological inhibitors or siRNA-mediated knockdown of kinase pathways after mitogen stimulation (see FIGS. 5A-5D and 8 for data obtained by immunoblotting analysis of cell lysates). […] EGF stimulated cell lysates strongly phosphorylated peptides B6, C6, C11 and G5 and these effects were blocked by pretreating cells with the MEK-specific inhibitor U0126.
In contrast, phosphorylation levels of these peptides were not changed as a result of insulin stimulation. […] PMA activates the MAPK pathway by activating the upstream kinase, PKC (Blenis et al. 1993 Proc Natl Acad Sci USA 90: 5889-5892). Because the observed increase in phosphorylation was reversed by prior treatment of cells with U0126, it was concluded that these peptides were not PKC substrates. Rather they were likely phosphorylated by kinases downstream of the MAPK pathway.
(§7) It was observed that basal phosphorylation of these peptides was not affected by knockdown and likely was the result of remaining RSK isoforms or other basophilic kinases (FIG. 5C).

recombinant RSK1 = target: T1, recombinant RSK1 (Homo sapiens, UniProt Q15418); assay: In vitro peptide phosphorylation by purified RSK; type: biochemical
T1 construct: 90 kDa ribosomal S6 kinases 1 (RSK1, 1-735); purchased Cell Signaling Technology (Danvers, Mass.)
From the text: (§8) Reaction mixture was supplemented with 0.1% BSA. Other conditions were the same as in FIG. 10A.
(§9) Purified human active kinases of Akt1 (full length), extracellular signal-regulated kinase 1 (ERK1, 1-379), mitogen-activated protein kinase kinase 1 (MEK1, 1-393), 90 kDa ribosomal S6 kinases 1 (RSK1, 1-735), cAMP-dependent protein kinase (PKA) catalytic subunit-α (PKA Cα, 1-351), protein kinase Cα (PKCα, full length), epidermal growth factor (EGF) receptor (EGFR, 672-1210), platelet-derived growth factor (PDGF) receptor α (PDGFRα, 550-1090), vascular endothelial growth factor (VEGF) receptor 1 (VEGFR1 784-1338), Src (full length), casein kinase 2 (CK2, full length), Aurora A (1-403), AMP-activated protein kinase α1β1γ1 (AMPK α1β1γ1, full length), glycogen synthase kinase-3α (GSK-3α, 1-483) and MAP/microtubule affinity-regulating kinase 1 (MARK 1, full length) were obtained from Cell Signaling Technology (Danvers, Mass.). Cdc2/cyclin B1 (full length) and insulin-like growth factor (IGF)-I receptor (IGFIR, 959-1367) were obtained from Upstate (Temecula, Calif.).
as §3, with “Each substrate peptide (250 pmol) was mixed to a final concentration of 5 μM in the 50 μL reaction mixture.” left out
as §7

activated, purified Akt = target: T2, activated, purified Akt (Homo sapiens, UniProt P31749); assay: In vitro peptide phosphorylation by purified Akt; type: biochemical; details: control, 2 ng purified kinase
T2 construct: Purified human active kinases of Akt1 (full length); purchased Cell Signaling Technology (Danvers, Mass.)
From the text: as §8, §9
Peptides were synthesized, purified and quantified as described in Yu et al. 2009 Proc Natl Acad Sci USA 106: 11606-11611, hereby incorporated by reference herein in its entirety. […] Alternatively, reactions were performed using 6 μg cell lysate aliquotes mixed to a final volume of 20 μl. […]

T2 sequence (P31749 whole entry): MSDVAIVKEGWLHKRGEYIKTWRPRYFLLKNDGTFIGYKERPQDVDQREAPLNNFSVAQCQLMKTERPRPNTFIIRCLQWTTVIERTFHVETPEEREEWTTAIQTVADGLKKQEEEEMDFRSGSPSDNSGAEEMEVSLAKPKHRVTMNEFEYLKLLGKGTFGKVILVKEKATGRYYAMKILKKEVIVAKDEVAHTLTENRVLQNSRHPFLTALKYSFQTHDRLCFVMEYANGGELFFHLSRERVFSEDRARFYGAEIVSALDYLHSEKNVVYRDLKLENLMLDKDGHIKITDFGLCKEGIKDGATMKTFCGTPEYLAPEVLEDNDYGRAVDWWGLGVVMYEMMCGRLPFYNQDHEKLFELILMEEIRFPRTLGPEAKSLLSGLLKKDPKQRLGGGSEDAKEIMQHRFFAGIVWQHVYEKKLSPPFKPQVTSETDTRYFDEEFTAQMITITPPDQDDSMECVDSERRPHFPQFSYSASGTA
T1 sequence (Q15418 whole entry): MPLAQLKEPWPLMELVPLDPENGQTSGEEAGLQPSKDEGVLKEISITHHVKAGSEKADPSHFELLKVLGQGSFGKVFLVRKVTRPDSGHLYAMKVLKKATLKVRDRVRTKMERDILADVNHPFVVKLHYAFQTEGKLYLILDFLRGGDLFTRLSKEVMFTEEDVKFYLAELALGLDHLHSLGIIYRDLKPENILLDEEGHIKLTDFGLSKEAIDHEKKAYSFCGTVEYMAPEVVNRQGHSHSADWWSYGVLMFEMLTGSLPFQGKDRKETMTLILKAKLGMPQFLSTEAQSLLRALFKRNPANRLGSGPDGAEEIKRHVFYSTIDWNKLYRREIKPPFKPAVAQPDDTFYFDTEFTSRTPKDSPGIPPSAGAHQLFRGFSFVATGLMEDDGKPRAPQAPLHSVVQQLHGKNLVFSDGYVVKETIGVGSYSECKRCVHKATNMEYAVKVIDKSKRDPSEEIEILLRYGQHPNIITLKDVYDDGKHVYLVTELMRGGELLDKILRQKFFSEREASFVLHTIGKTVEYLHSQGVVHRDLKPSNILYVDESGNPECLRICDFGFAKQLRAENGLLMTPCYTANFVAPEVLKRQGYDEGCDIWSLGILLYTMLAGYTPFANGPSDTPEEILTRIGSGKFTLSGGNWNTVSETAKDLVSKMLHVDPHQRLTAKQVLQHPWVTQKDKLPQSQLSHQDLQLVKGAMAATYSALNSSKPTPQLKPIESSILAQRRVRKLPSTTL

Compound	E: changed phosphorylation in EGF stimulated condition (HEK293 cell lysates [1])	increase in phosphorylation after EGF (HEK293 cell lysates [1])	increase in phosphorylation after insulin (HEK293 cell lysates [1])	G2/M: changed phosphorylation (HeLa cell lysates)	phosphorylation in response to insulin stimulation (HEK293 cell lysates [2])	effect on insulin-stimulated phosphorylation of peptide E11 (HEK293 cells [3])	other results
RKRLISSVEDPFR (The sequence was designed and synthesized) [E11]	+ (A change of more +2 fold and −2 fold is indicated by “+” and “−”, respectively.)	2.3 fold	1.7 fold	− (A change of more +2 fold and −2 fold is indicated by “+” and “−”, respectively.)	increased phosphorylation		increase of phosphorylation rate with insulin (HEK293 cell lysates [2]; HEK293): more than 2 fold
O=c1[nH]c2ccccc2n1C1CCN(Cc2ccc(-c3nc4cc5[nH]cnc5cc4nc3-c3ccccc3)cc2)CC1 [Akt inhibitor VIII]							effect on phosphorylation rate of the A3 peptide (HEK293 cells [3]): decreased
C[S+]([O-])c1ccc(-c2nc(-c3ccncc3)c(-c3ccc(F)cc3)[nH]2)cc1 (stereo not drawn) [SB203580]						paradoxical upregulation	
RPRAATFPFR (The sequence was designed and synthesized) [A3]	+ (A change of more +2 fold and −2 fold is indicated by “+” and “−”, respectively.)	2.9 fold	4.6 fold		increased phosphorylation		I: changed phosphorylation in insulin stimulated condition (HEK293 cell lysates [1]; insulin-stimulated compared to starved HEK293 cells): ++ (A change of more than +4 and −4 fold is indicated by “++” and “−−”, respectively.)
N#CC(=C(/N)Sc1ccccc1N)/C(C#N)=C(\N)Sc1ccccc1N [U0126]						blocked	effect on EGF-stimulated phosphorylation of peptides B6, C6, C11 and G5 (HEK293 cells [4]; 5 μM, 1 hr pretreatment, HEK293): blocked; RSK-equivalent activity of lysate, peptide C6 as substrate (HEK293 cells [4]; cells pretreated with U0126 then stimulated with EGF, EGF alone approximately 0.6 ng per μg): 0.2 ng RSK/μg lysate; effect on PMA-induced increase in phosphorylation of RSK peptides (HEK293 cells [4]; prior treatment of cells, HEK293): reversed
TKRSGSVYEPPFR (The sequence was designed and synthesized) [C6]	+ (A change of more +2 fold and −2 fold is indicated by “+” and “−”, respectively.)			− (A change of more +2 fold and −2 fold is indicated by “+” and “−”, respectively.)			phosphorylation by recombinant RSK1 in vitro (recombinant RSK1): robustly phosphorylate; phosphorylation by Akt (activated, purified Akt): not significantly phosphorylated
